From patent US6139864A, “Compositions for common colds” (Sudzucker Aktiengesellschaft, priority 1998, dated 2000)

Experiments:
[1] = Nephelometric determination of free Zn ions in the presence of polyols; format: physicochemical; settings: 35° C., acetate buffer pH=6.0; for Percentage of free (uncomplexed) ions: of total amount, 26 mg Zn in 50 ml; for Zn ions free in solution: standardized to the same Zn ion concentration (26 mg in 50 ml)
Description: 10 ml of zinc gluconate solution (2 g of zinc gluconate and 250 ml of deionized water) are mixed with 10 ml of polyol solution (1.0 g of sugar or sugar alcohol dissolved in 25 ml of deionized water) and 2 ml of acetate buffer (pH=6.0) and thermostatted at 35° C. in a cuvette.
1 molar NaHCO3 solution is subsequently added dropwise in small amounts, and the turbidity is determined using a turbidity photometer.
Isomalt, sucrose, glucose, hard isomalt candies, the zinc gluconate which was used as a source of zinc and two commercial products are compared, the overall amount of Zn ions in each case corresponding to 26 mg in 50 ml of solution.

rhinoviruses = settings: Merluzzi et al. 1989; cited from earlier work
colds = settings: free zinc ions; Mossad et al. 1996, Godfrey et al. 1996; cited from earlier work
Staphylococcus aureus = test: Growth of Staphylococcus aureus in CASO medium with added sugar alcohol, optical density OD578 versus control; format: cell-based; settings: 16 h, read-out: growth reduced to
Description: Staphylococcus aureus was cultivated at 37° C. in CASO medium to which, in addition to the carbon source glucose (5% strength), isomalt (0.58 M) had been added. The growth of the bacteria cultures in a shaking flask was determined after 16 h by means of the optical density (OD578) and compared with a control (CASO medium without isomalt). It was observed that in all experiments the growth of the cultures which were grown in isomalt was inhibited by more than 50%.

[2] = Godfrey et al. 1992; Zarembo et al. 1992; U.S. Pat. Nos. 5,409,905 and 5,002,970; cited from earlier work
[3] = Dissolution rate of sugar alcohols; format: physicochemical

Row | Compound | Percentage of free (uncomplexed) ions [1] | Zn ions free in solution [1] | also measured
1 | OC[C@H]1O[C@@](CO)(O[C@H]2O[C@H](CO)[C@@H](O)[C@H](O)[C@H]2O)[C@@H](O)[C@@H]1O [Sucrose] | 48% | 12.40 mg in 50 ml of solution | –
2 | zinc gluconate [Zn gluconate] | 64% | 14.62 mg in 50 ml of solution | –
3 | zinc ions | – | – | antiviral effects (rhinoviruses): antiviral effects are a direct function of the amount of free Zn^2+ ions; duration and severity of the symptoms of colds (colds): markedly reduces both the duration and the severity of the symptoms of colds
4 | O=C[C@H](O)[C@@H](O)[C@H](O)[C@H](O)CO [Glucose] | 50% | 13.00 mg in 50 ml of solution | –
5 | OC[C@@H](O)[C@@H](O)[C@H](O)[C@@H](O)CO [sorbitol] | – | – | activity at 580000 µM (Staphylococcus aureus): ~75%; zinc-complexing action [2]: zinc-complexing action
6 | OC[C@@H](O)[C@@H](O)[C@H](O)[C@H](O)CO[C@H]1O[C@H](CO)[C@@H](O)[C@H](O)[C@H]1O [1,1-GPM, 1-O-α-D-glucopyranosyl-D-mannitol] | – | – | dissolution rate compared with 1,6-GPS [3]: considerably lower dissolution rate than 1,6-GPS
7 | OC[C@@H](O)[C@@H](O)[C@H](O)[C@H](O)CO [mannitol] | – | – | zinc-complexing action [2]: zinc-complexing action
